According to US5840720A (priority 1995, dated 1998):
Where “and” joins values, the source holds several entries; their conditions need not be identical. Identical values can stand only once. Like-named read-outs stand apart in the source and are kept apart here. Where no end group is shown, it is not given here.

Experiments:
[1] = test system: calcium channel in the isolated guinea-pig atrium; assay: CaCl2-induced chronotropic and inotropic effects in isolated guinea-pig atria; details: for inhibition of calcium-induced chronotropic and inotropic effects: pretreatment, increasing CaCl2, right and left atria
Experimental: Each point represents the mean of six experiments; vertical bars represent the S.E.M.
FIGS. 6A-6B Effect of CAPCNC6 (10 μM) on the positive chronotropic (spontaneously beating right atrium) and inotropic (electrically-driven left atria) effect of increasing Ca^2+ concentrations in guinea pigs. Beating rate and tension were expressed as % of control values. Data represents the mean±S.E.M. (n=7).
D. Effects of compound on the calcium channel in the isolated guinea-pig atrium

[2] = test system: airway; details: inhalation; cited from earlier work
[3] = test system: neuronal calcium currents; details: cited from earlier work
[4] = test system: isolated guinea-pig bronchi; set-up: species or system guinea pig (Hartley)
[5] = test system: isolated guinea-pig ileum; assay: Capsaicin, substance P and carbachol-induced contractility of isolated guinea-pig ileum; details: for contraction of ileum smooth muscle: carbachol as control, substance P 0.1 μM; for inhibition of substance P-induced ileum contraction: SP 0.1 μM
Experimental: FIG. 4 The effects of CAPBZ on response of guinea-pig ileum to capsaicin (10 μM), substance P (SP, 0.1 μM), and carbachol (0.5 μM). […] Thirty minutes following washout, responses to SP, and carbachol were recovered.
C. Antagonist activity of compound on capsaicin and substance Pinduced contractilities of isolated guinea-pig ileum
The abdominal incisions for the guinea pig were made and ilea were isolated and placed in cold (4° C.) Tyrode's solution. 2.5 cm segments of ileum were then trimmed and suspended in an organ bath containing 20 ml low calcium Kreb's solution, aerated with 95% O2 and 5% CO2 at 37° C. As the method reported by M. Takaki et al. (Eur. J. Pharmacol. 174, 5762, 1989).
This effect of capsaicin or substance P was inhibited in the presence of 1.0-100 μM of compound 1 (CAPBZ), concentration-dependently.

[6] = test system: isolated guinea-pig right and left atria
[7] = test system: isolated guinea-pig atria; details: cited from earlier work; for action potential duration: guinea pig atria
[8] = test system: neuronal sodium currents; details: cited from earlier work
[9] = test system: isolated guinea-pig trachea; assay: Capsaicin-induced contractility of isolated guinea-pig trachea; set-up: species or system guinea pig (Hartley); details: 0.01-30 μM capsaicin, cumulative
Excerpt: Each point represents mean±S.E.M of six experiments.
A. Antagonist activity of compounds on capsaicin-induced contractility of isolated guinea-pig bronchi and trachea
Adult guinea pigs (Hartley), weighing 350-450 g, were sacrificed by a blow on the head followed by cervical dislocation. The bronchi and trachea were removed from the lungs, cleaned of all parenchyma, and immediately placed in Kreb's solution. As the method reported by M. G. Belvisi et al. (Eur. J. Pharmacol. 215, 341-4, 1992).

[10] = test system: capsaicin-induced blood pressure changes; type: in vivo, Wistar rats
[11] = test system: capsaicin-induced hypotensive reflex; type: in vivo, rats
[12] = test system: guinea-pig bronchi; details: cited from earlier work
[13] = test system: capsaicin-induced heart rate changes; type: in vivo, Wistar rats
[14] = test system: capsaicin; details: cited from earlier work
[15] = test system: isolated guinea-pig right and left atrium; assay: hCGRP-induced beating and tension of isolated guinea-pig atria
[16] = A phase, 15 min i.v. infusion 100 μg/kg/min, capsaicin 10 μg/kg i.v., one compartment model
[17] = C phase, 15 min i.v. infusion 100 μg/kg/min, capsaicin 10 μg/kg i.v., one compartment model
[18] = pretreatment i.t. 1 nmole, capsaicin i.a. 10 μg/kg, mean±S.E.M., n=6, control (None) -19.6 ± 1.9
[19] = capsaicin 0.01-30 μM cumulative, compound 1 and 3 at 1.0-100 μM, capsazepine 1-10 μM
[20] = fast phase, 15 min infusion, one compartment model
[21] = slow phase, 15 min infusion, one compartment model
[22] = 0.1-10 μM compound, 1.0 μM capsaicin, concentration-dependent

## [Ca+2].[Cl-].[Cl-] [CaCl2, reference compound]
[1]; cumulative CaCl2, electrically driven left atrium
  inotropic effect: positive inotropic effect
[1]; cumulative CaCl2, spontaneously beating right atrium
  chronotropic effect: positive chronotropic effect

## COc1cc(CNC(=O)CCCC/C=C/C(C)C)ccc1O [Capsaicin]
[2]
  airway resistance: increase airway resistance and leads to bronchoconstriction
[3]
  inhibition of neuronal calcium currents: inhibit neuronal calcium currents
[4]; 0.01-30 μM capsaicin, cumulative
  contraction of isolated guinea-pig bronchi: concentration-dependent increase in contraction
[5]; capsaicin 10 μM
  contraction of ileum smooth muscle: weaker contractions
[6]
  inotropic and chronotropic effect: positive inotropic and chronotropic response
[6]; listed as capsaicin
  inotropic and chronotropic effect: positive inotropic and chronotropic effect
[7]
  action potential duration: prolong action potential duration
[7]; isolated guinea-pig atria
  chronotropic and inotropic effects: potent positive chronotropic and inotropic effects
[8]
  inhibition of neuronal sodium currents: inhibit neuronal sodium currents
[9]
  contraction of isolated guinea-pig trachea: concentration-dependent increase in contraction

## Oc1cc2c(cc1O)CN(C(=S)NCCc1ccc(Cl)cc1)CCC2 [Capsazepine, reference compound]
[10]; A effect
  efficacy order of antagonist activities, A effect: capsazepine>NVABZ>NVABI
[10]; [16]
  Recovery half-life (t1/2) of capsaicin-induced blood pressure changes, A phase: 2.73 min
[10]; B effect
  efficacy order of antagonist activities, B effect: NVABI>capsazepine>NVABZ
[10]; 15 min i.v. infusion 100 μg/kg/min, capsaicin 10 μg/kg i.v., one compartment model
  Recovery half-life (t1/2) of capsaicin-induced blood pressure changes, B phase: 2.89 min
[10]; C effect
  efficacy order of antagonist activities, C effect: capsazepine>NVABI>NVABZ
[10]; [17]
  Recovery half-life (t1/2) of capsaicin-induced blood pressure changes, C phase: 3.78 min
[10]; rat, in vivo
  duration order of antagonist activities: NVABZ>NVABI>capsazepine
[10]; saline infusion after 100 μg/kg/min infusion
  recovery of antagonist activity to basal level: recovered to basal level by saline infusion for 30, 45, and 60 minutes gradually
[11]; [18]
  depressor reflex response: capsaicin-induced blood pressure changes after pretreatment: 25.8 ± 3.0
[12]
  inhibition of contractile response evoked by capsaicin or electrical field stimulation: effective in inhibiting the contractile response
[4]; [19]
  shift of capsaicin-induced contraction in bronchi: shifted rightward
[13]; [20]
  Recovery half-life (t1/2) of capsaicin-induced heart rate changes, fast phase: 1.36 min
[13]; [21]
  Recovery half-life (t1/2) of capsaicin-induced heart rate changes, slow phase: 3/52
[14]
  capsaicin antagonism / agonism: competitive capsaicin antagonist

## CCCCCCCCC(=O)NCc1cc2c(c(OC)c1)OCN(c1ccc(C(=O)OCC)cc1)C2 [Compound 1, N[P-(carboxylic acid ethyl ester)-phenylamine-(4-oxymethylene, 5-methylene)-3-methoxybenzyl] nonanamide]
[15]; after pretreatment with CGRP for 30 minutes
  change of CGRP-induced contractilities after CGRP pretreatment: could not change CGRP-induced contractilities
[15]; right and electrically driven left atrium, FIG. 7 CAPBZ 50 μM
  inhibition of hCGRP-induced beating and tension: not inhibited
[4]; against capsaicin-induced contraction
  inhibitory effect in bronchi compared with trachea: more effective in bronchi than in trachea
[4]; [19]
  shift of capsaicin-induced contraction in bronchi: shifted rightward
[1]
  inhibition of calcium-induced chronotropic and inotropic effects: could inhibit these calcium effects
[5]; compound 1.0-100 μM
  inhibition of substance P-induced ileum contraction: inhibited
[5]; compound 1.0-100 μM, listed as CAPBZ
  inhibition of substance P-induced ileum contraction: concentration-dependently reduction of response
[5]; carbachol 0.5 μM, FIG. 4
  reduction of ileum response to carbachol: concentration-dependently reduction of response
[5]; compound 1.0-100 μM, capsaicin 10 μM, concentration-dependent
  inhibition of capsaicin-induced ileum contraction: inhibited
[5]; thirty minutes following washout
  recovery of responses to SP and carbachol after washout: recovered
[6]; [22]
  inhibition of capsaicin-induced positive inotropic and chronotropic effect: significantly inhibited
[6]; pretreatment for 30 min, capsaicin 1 μM, FIGS. 3A-3D
  effect of pretreatment on capsaicin-induced inotropic and chronotropic response: decreased the effect of capsaicin

## CCCCCCCCC(=O)NCc1cc2c(c(OC)c1)OCN(CCCCCC)C2 [Compound 6, N-[hexylamino-(4-oxymethene, 5-methylene)-3-methoxybenzyl] nonanamide]
[1]
  inhibition of calcium-induced chronotropic and inotropic effects: could inhibit these calcium effects
[6]; [22]
  inhibition of capsaicin-induced positive inotropic and chronotropic effect: significantly inhibited

## C[N+](C)(C)CCOC(N)=O [carbachol, reference compound]
[5]; capsaicin 10 μM
  contraction of ileum smooth muscle: maximum contraction

## CCCCCCCCC(=O)NCc1ccc(OCC(O)CO)c(OC)c1 (centres unmarked) [glyceryl nonivamide]
[14]
  capsaicin antagonism / agonism: selective capsaicin agonist

## CGRP
[7]
  action potential duration: prolong action potential duration

## N-[(4-hydroxy, 5-diethylaminomethyl)-3-methyoxybenzyl] nonamide [Compound 11]
[10]; rat, in vivo
  duration order of antagonist activities: NVABZ>NVABI>capsazepine
  efficacy order of antagonist activities, A effect: capsazepine>NVABZ>NVABI
  efficacy order of antagonist activities, B effect: NVABI>capsazepine>NVABZ
  efficacy order of antagonist activities, C effect: capsazepine>NVABI>NVABZ
  recovery of antagonist activity to basal level: recovered to basal level by saline infusion for 30, 45, and 60 minutes gradually
[10]; rat, in vivo, iv
  Recovery half-life (t1/2) of capsaicin-induced blood pressure changes, A phase: 10.67 min
  Recovery half-life (t1/2) of capsaicin-induced blood pressure changes, C phase: 21.75 min
[11]; rat, in vivo
  depressor reflex response: capsaicin-induced blood pressure changes after pretreatment: 19.2 ± 2.5
[13]; rat, in vivo
  Recovery half-life (t1/2) of capsaicin-induced heart rate changes, fast phase: 11.95 min
  Recovery half-life (t1/2) of capsaicin-induced heart rate changes, slow phase: 15.75 min
[6]
  effect of pretreatment on capsaicin-induced inotropic and chronotropic response: decreased the effect of capsaicin
  inhibition of capsaicin-induced positive inotropic and chronotropic effect: significantly inhibited

## N[p-ethylketone-phenylamino-(4-oxymethylene, 5-methylene)-3-methoxybenzyl] nonamide [Compound 12]
[10]; [16]
  Recovery half-life (t1/2) of capsaicin-induced blood pressure changes, A phase: 4.30 min
[10]; 15 min i.v. infusion 100 μg/kg/min, capsaicin 10 μg/kg i.v., one compartment model, listed as NVADA
  Recovery half-life (t1/2) of capsaicin-induced blood pressure changes, B phase: 9.00 min and 9.01 min
[10]; [17]
  Recovery half-life (t1/2) of capsaicin-induced blood pressure changes, C phase: 4.49 min
[11]; [18]
  depressor reflex response: capsaicin-induced blood pressure changes after pretreatment: -10.6 ± 2.5
[13]; [20]
  Recovery half-life (t1/2) of capsaicin-induced heart rate changes, fast phase: 5.33 min
[13]; [21]
  Recovery half-life (t1/2) of capsaicin-induced heart rate changes, slow phase: 6.00 min
[6]; [22]
  inhibition of capsaicin-induced positive inotropic and chronotropic effect: significantly inhibited

## [N-Allylamino-(4-oxymethylene, 5-methylene)-3-methoxybenzyl] nonanamide [Compound 3]
[4]
  inhibitory effect in bronchi compared with trachea: more effective in bronchi than in trachea
  shift of capsaicin-induced contraction in bronchi: shifted rightward

## substance P: SP (substance P) (RPKPQQFFGLM; ends and bridges not checked; UniProt P20366 58-68, looked up) [reference compound]
[5]; capsaicin 10 μM
  contraction of ileum smooth muscle: weaker contractions
